Measurements reported in ChEMBL document CHEMBL4811280, “Discovery of a simplified deguelin analog as an HSP90 C-terminal inhibitor for HER2-positive breast cancer” (Bioorg Med Chem Lett, 2021).

Columns and labels:
[1] = tested on: BT-474; assay: Antiproliferative activity against trastuzumab-sensitive HER2-positive human BT-474 cells assessed as cell viability at 10 uM after 72 hrs by MTS assay; assay type: functional; settings: read-out: Activity
[2] = tested on: JIMT-1; assay: Antiproliferative activity against trastuzumab-resistant HER2-positive human JIMT-1 cells assessed as cell viability at 10 uM after 72 hrs by MTS assay; assay type: functional; settings: read-out: Activity
[3] = tested on: HEK293; assay: Cytotoxicity against human HEK293 cells assessed as reduction in cell viability at 10 uM after 72 hrs by MTS assay; assay type: cell-based; settings: hek293, 72 h
[4] = tested on: BT-474; assay: Antiproliferative activity against trastuzumab-sensitive HER2-positive human BT-474 cells assessed as reduction in cell viability after 72 hrs by MTS assay; assay type: functional, cell-based; settings: dose 0.1-20 µM
[5] = tested on: SK-BR-3; assay: Antiproliferative activity against trastuzumab-sensitive human SK-BR-3 cells assessed as reduction in cell viability after 72 hrs by MTS assay; assay type: functional, cell-based; settings: dose 0.1-20 µM
[6] = tested on: JIMT-1; assay: Antiproliferative activity against trastuzumab-resistant HER2-positive human JIMT-1 cells assessed as reduction in cell viability after 72 hrs by MTS assay; assay type: functional, cell-based; settings: dose 0.1-20 µM
[7] = tested on: MDA-MB-453; assay: Antiproliferative activity against trastuzumab-resistant human MDA-MB-453 cells assessed as reduction in cell viability after 72 hrs by MTS assay; assay type: functional, cell-based; settings: dose 0.1-20 µM
[8] = target: T1, Heat shock protein HSP90 (Homo sapiens, UniProt P07900+P08238); assay: Inhibition of HSP90 at N-terminus in human BT-474 cells assessed as increase in nuclear HSF1 protein level at 10 uM incubated for 24 hrs by immunostaining analysis; assay type: cell-based; settings: bt-474, 24 h
[9] = target: T1, Heat shock protein HSP90; assay: Inhibition of HSP90 at N-terminus in human BT-474 cells assessed as increase in cytosolic HSP90 protein level at 10 uM incubated for 24 hrs by immunostaining analysis; assay type: cell-based; settings: bt-474, 24 h
[10] = target: T1, Heat shock protein HSP90; assay: Inhibition of HSP90 at C-terminus in trastuzumab-sensitive human BT-474 cells assessed as downregulation of HER2 protein expression incubated for 72 hrs by Western blot analysis; assay type: cell-based; settings: dose 2-10 µM
[11] = target: T1, Heat shock protein HSP90; assay: Inhibition of HSP90 at C-terminus in trastuzumab-resistant human […] cells assessed as downregulation of HER2 protein expression incubated for 72 hrs by Western blot analysis; assay type: cell-based; settings: JIMT-1, dose 2-10 µM
[12] = target: T1, Heat shock protein HSP90; assay: Inhibition of HSP90 at C-terminus in trastuzumab-sensitive human BT-474 cells assessed as downregulation of Akt protein expression incubated for 72 hrs by Western blot analysis; assay type: cell-based; settings: dose 2-10 µM
[13] = target: T1, Heat shock protein HSP90; assay: Inhibition of HSP90 at C-terminus in trastuzumab-resistant human […] cells assessed as downregulation of Akt protein expression incubated for 72 hrs by Western blot analysis; assay type: cell-based; settings: JIMT-1, dose 2-10 µM
[14] = target: T1, Heat shock protein HSP90; assay: Inhibition of HSP90 at C-terminus in trastuzumab-sensitive human BT-474 cells assessed as downregulation of cyclinD1 protein expression incubated for 72 hrs by Western blot analysis; assay type: cell-based; settings: dose 2-10 µM
[15] = target: T1, Heat shock protein HSP90; assay: Inhibition of HSP90 at C-terminus in trastuzumab-resistant human […] cells assessed as downregulation of cyclinD1 protein expression incubated for 72 hrs by Western blot analysis; assay type: cell-based; settings: JIMT-1, dose 2-10 µM
[16] = target: T1, Heat shock protein HSP90; assay: Inhibition of HSP90 at C-terminus in trastuzumab-sensitive human BT-474 cells assessed as downregulation of survivin protein expression incubated for 72 hrs by Western blot analysis; assay type: cell-based; settings: dose 2-10 µM
[17] = target: T1, Heat shock protein HSP90; assay: Inhibition of HSP90 at C-terminus in trastuzumab-resistant human […] cells assessed as downregulation of survivin protein expression incubated for 72 hrs by Western blot analysis; assay type: cell-based; settings: JIMT-1, dose 2-10 µM

inhibition (INH) [8]: Not Active
inhibition (INH) [9]: Not Active
inhibition [10]: Dose-Dependent Effect
inhibition [11]: Dose-Dependent Effect
inhibition [12]: Dose-Dependent Effect
inhibition [13]: Dose-Dependent Effect
inhibition [14]: Dose-Dependent Effect
inhibition [15]: Dose-Dependent Effect
Compound: COc1cc2c(C(OC(=O)C3CC3)c3ccc4c(c3OC)C=CC(C)(C)O4)ccnc2cc1OCCCN1CCN(C)CC1 (configuration not stated)
viability at 10 µM [1]: < 20%
viability at 10 µM [2]: < 20%
Activity [3]: Toxic
Activity [4]: Dose-Dependent Effect
Activity [5]: Dose-Dependent Effect
Activity [6]: Dose-Dependent Effect
Activity [7]: Dose-Dependent Effect
inhibition [16]: Dose-Dependent Effect
inhibition [17]: Dose-Dependent Effect
